Assay type in all cases: in vivo
The test system of test [1] is Alopecurus myosuroides (ALOMY). Briefly: Post-emergence herbicidal activity, glasshouse pot test. Conditions: Alopecurus myosuroides, 312 h, rate 250 g/ha, evaluated after 13 days, glasshouse, read-out: Post-emergence activity ALOMY (100=total damage to plant; 0=no damage to plant). An outline of the steps:
(§1)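 Sow seeds in standard soil in pots; grow 1 day (pre-emergence) or 8 days (post-emergence) at 24/16° C, 14 h light, 65% humidity. Spray aqueous solution from acetone/water 50:50 + 0.5% Tween 20 formulation. Grow on, watering twice daily; score damage 0–100 after 13 days.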

The subject of test [2] is Echinochloa crus-galli (ECHCG). Described as above. Conditions: Echinochloa crus-galli, 312 h, rate 250 g/ha, evaluated after 13 days, glasshouse, read-out: Post-emergence activity ECHCG (100=total damage to plant; 0=no damage to plant). An outline of the steps:
as §1

In test [3] the test system is Avena fatua (AVEFA). Described as above. Conditions: Avena fatua, 312 h, rate 250 g/ha, evaluated after 13 days, glasshouse, read-out: Post-emergence activity AVEFA (100=total damage to plant; 0=no damage to plant). An outline of the steps:
as §1

The test system of test [4] is Lolium perenne (LOLPE). The test is described as above. Conditions: Lolium perenne, 312 h, rate 250 g/ha, evaluated after 13 days, glasshouse, read-out: Post-emergence activity LOLPE (100=total damage to plant; 0=no damage to plant). An outline of the steps:
as §1

The subject of test [5] is Alopecurus myosuroides (ALOMY). Briefly: Pre-emergence herbicidal activity, glasshouse pot test. Conditions: Alopecurus myosuroides, 312 h; Rate 250 g/ha; pre-emergence spray; evaluated after 13 days; read-out: Pre-emergence activity ALOMY (100=total damage to plant; 0=no damage to plant). In short, it runs like this:
as §1

In test [6] the test system is Echinochloa crus-galli (ECHCG). Described as above. Conditions: Echinochloa crus-galli, 312 h; Rate 250 g/ha; pre-emergence spray; evaluated after 13 days; read-out: Pre-emergence activity ECHCG (100=total damage to plant; 0=no damage to plant). In short, it runs like this:
as §1

Test [7] concerns Avena fatua (AVEFA). The test is described as above. Conditions: Avena fatua, 312 h; Rate 250 g/ha; pre-emergence spray; evaluated after 13 days; read-out: Pre-emergence activity AVEFA (100=total damage to plant; 0=no damage to plant). An outline of the steps: as §1
The test system of test [8] is Lolium perenne (LOLPE). Described as above. Conditions: Lolium perenne, 312 h; Rate 250 g/ha; pre-emergence spray; evaluated after 13 days; read-out: Pre-emergence activity LOLPE (100=total damage to plant; 0=no damage to plant). An outline of the steps:
as §1

As for `CCc1ccc(Oc2nc(F)c(Cl)c(Cl)c2Cl)cc1C1=C(O)C(C)(C)OC(C)(C)C1=O` [Example A-60], the pest or weed control at 250 g/ha in test [1] was 0%; in test [2], 0%; with Avena fatua (AVEFA) [3], 0%; in the test on Lolium perenne (LOLPE) [4], 0%; in test [5], 0%; in test [6], 50%. For the same molecule, the pest or weed control at 250 g/ha in the test with Avena fatua (AVEFA) [7] was determined as 0%; in the test on Lolium perenne (LOLPE) [8] it was 40%.

In the case of `CCc1ccc(Oc2ccc(C#N)c(Cl)c2)cc1C1=C(O)CC(C)(C)CC1=O` [Example A-280], the pest or weed control at 250 g/ha in test [1] turned out to be 90%; in test [2], 100%; in the test with Avena fatua (AVEFA) [3], 70%; with Lolium perenne (LOLPE) [4] it was 60%; in test [5], 70%; in test [6], 100%. Moreover, the pest or weed control at 250 g/ha in the test on Avena fatua (AVEFA) [7] was 40%; in the test on Lolium perenne (LOLPE) [8] it was 70%.

On to `CCc1ccc(Oc2ncc(C)nc2C)cc1C1=C(O)C(C)(C)OC(C)(C)C1=O` [Example A-135], for which the pest or weed control at 250 g/ha is 30% in test [1]; 50% in test [2]; 20% with Avena fatua (AVEFA) [3]; 30% with Lolium perenne (LOLPE) [4]; 10% in test [5]; 30% in test [6]. The pest or weed control at 250 g/ha is 0% in the test with Avena fatua (AVEFA) [7] and 10% with Lolium perenne (LOLPE) [8].

For the molecule `CCc1ccc(Oc2ncc(C(F)(F)F)cc2Cl)cc1C1=C(O)[C@@H]2CC[C@](C)(C1=O)C2(C)C` [Example A-317], the pest or weed control at 250 g/ha (in test [1]; in test [2]; in the test on Avena fatua (AVEFA) [3]; in the test on Lolium perenne (LOLPE) [4]; in test [5]; in test [6]) was 100% each time. Further, the pest or weed control at 250 g/ha in the test with Avena fatua (AVEFA) [7] and in the test on Lolium perenne (LOLPE) [8] was 100% each time.

`CCc1ccc(Oc2nccnc2Cl)cc1C1=C(O)C(C)(C)OC(C)(C)C1=O` [Example A-103]: the pest or weed control at 250 g/ha in test [1] was 10%; in test [2] it was 40%; in the test on Avena fatua (AVEFA) [3] it was 0%; in the test with Lolium perenne (LOLPE) [4], 20%; in test [5], 10%; in test [6] it was 30%. The pest or weed control at 250 g/ha in the test with Avena fatua (AVEFA) [7] is 0%; with Lolium perenne (LOLPE) [8], 40%.

Turning to `CCc1ccc(Oc2cnc3cc(F)ccc3n2)cc1C1=C(O)CC2(CCOCC2)CC1=O` [Example A-311], the pest or weed control at 250 g/ha in test [1] is 100%; in test [2], 100%; with Avena fatua (AVEFA) [3] it was 100%; with Lolium perenne (LOLPE) [4] it was 100%; in test [5], 90%; in test [6], 100%. In addition, the pest or weed control at 250 g/ha in the test with Avena fatua (AVEFA) [7] and with Lolium perenne (LOLPE) [8] was 100% throughout.

For the molecule `CCc1ccc(Oc2cc(C(F)(F)F)ccn2)cc1C1=C(O)C(C)(C)OC(C)(C)C1=O` [Example A-153], the pest or weed control at 250 g/ha amounted to 70% in test [1]; 90% in test [2]; 80% with Avena fatua (AVEFA) [3]; 30% with Lolium perenne (LOLPE) [4]; 50% in test [5]; 100% in test [6]. The values for the pest or weed control at 250 g/ha with Avena fatua (AVEFA) [7] and with Lolium perenne (LOLPE) [8] were 20% and 60%, respectively.

Take `CCc1ccc(Oc2ccc(Cl)cc2Cl)cc1C1=C(O)CC2(CCOCC2)CC1=O` [Example A-190]: the pest or weed control at 250 g/ha in test [1] is 80%; in test [2], 100%; in the test with Avena fatua (AVEFA) [3], 90%; with Lolium perenne (LOLPE) [4] it was 90%; in test [5] it was 30%; in test [6], 80%. Also, the values for the pest or weed control at 250 g/ha in the test on Avena fatua (AVEFA) [7] and in the test with Lolium perenne (LOLPE) [8] were 30% and 50%, respectively.

For `CCc1ccc(Oc2ccc(C#N)cc2C(F)(F)F)cc1C1=C(O)CC2(CCOCC2)CC1=O` [Example A-306], the pest or weed control at 250 g/ha amounted to 70% in test [1]; 100% in test [2]; 80% in the test with Avena fatua (AVEFA) [3]; 60% in the test on Lolium perenne (LOLPE) [4]; 60% in test [5]; 100% in test [6]. Besides, the pest or weed control at 250 g/ha is 0% in the test on Avena fatua (AVEFA) [7] and 70% in the test on Lolium perenne (LOLPE) [8].

`CCc1ccc(Oc2ncc(C(F)(F)F)cc2C(F)(F)F)cc1C1=C(O)CC2(CCOCC2)CC1=O` [Example A-269]: the pest or weed control at 250 g/ha in test [1] is 90%; in test [2], 100%; with Avena fatua (AVEFA) [3] it was 90%; in the test on Lolium perenne (LOLPE) [4] it was 70%; in test [5] it was 100%; in test [6], 100%. Moreover, the pest or weed control at 250 g/ha in the test on Avena fatua (AVEFA) [7] is 80%; in the test on Lolium perenne (LOLPE) [8], 90%.

For the molecule `CCc1ccc(Oc2nc3ccc(Cl)cc3s2)cc1C1=C(O)CC2(CCOCC2)CC1=O` [Example A-304], the pest or weed control at 250 g/ha is 100% in test [1]; 100% in test [2]; 100% in the test on Avena fatua (AVEFA) [3]; 100% in the test on Lolium perenne (LOLPE) [4]; 80% in test [5]; 100% in test [6]. In addition, the values for the pest or weed control at 250 g/ha with Avena fatua (AVEFA) [7] and in the test with Lolium perenne (LOLPE) [8] were 80% and 70%, respectively.

With `CCc1ccc(Oc2ncc(C(F)(F)F)cc2F)cc1C1=C(O)C(C)(C)OC(C)(C)C1=O` [Example A-62], the pest or weed control at 250 g/ha (in test [1]; in test [2]; with Avena fatua (AVEFA) [3]; with Lolium perenne (LOLPE) [4]; in test [5]; in test [6]) was 100% each time. The pest or weed control at 250 g/ha in the test on Avena fatua (AVEFA) [7] and with Lolium perenne (LOLPE) [8] was 100% each time.

For the molecule `CCCc1cnc(Oc2ccc(CC)c(C3=C(O)C(C)(C)OC(C)(C)C3=O)c2)nc1` [Example A-128], the pest or weed control at 250 g/ha came out at 50% in test [1]; 70% in test [2]; 30% in the test on Avena fatua (AVEFA) [3]; 40% in the test on Lolium perenne (LOLPE) [4]; 20% in test [5]; 50% in test [6]. Further, the pest or weed control at 250 g/ha stood at 10% in the test with Avena fatua (AVEFA) [7] and 60% with Lolium perenne (LOLPE) [8].

With `CCc1ccc(Oc2ncc(Cl)cc2Cl)cc1C1=C(O)CC2(CCOCC2)CC1=O` [Example A-275], the pest or weed control at 250 g/ha in test [1] was 90%; in test [2], 100%; in the test with Avena fatua (AVEFA) [3], 100%; with Lolium perenne (LOLPE) [4] it was 100%; in test [5], 100%; in test [6], 100%. In addition, the figures for the pest or weed control at 250 g/ha in the test on Avena fatua (AVEFA) [7] and in the test with Lolium perenne (LOLPE) [8] were 90% and 100%, respectively.

Source of the values: patent US8865623B2, “Herbicidally active cyclic diones and derivatives thereof, processes for their preparation, compositions, and method of controlling weeds” (Syngenta Limited, priority 2009, dated 2014).
